According to patent US20040209239A1, “Methods and compositions fir identifying episomal dna virus infection treatment” (priority 2001, published 2004):

Key:
EBNA1 [1] = experiment: ChIP assay of EBNA1 association with OriP in D98/HR1 cells; format: cell-based, Epstein-Barr virus; conditions: treated D98/HR1 cells
Method: (§1) To determine if telomere associated proteins EBNA1, TRF2 and Tankyrase associate with EBV oriP episomes in naturally infected cell lines, the chromatin immunoprecipitation) (CHIP) assay was used with EBV positive RAJI Burkitt lymphoma cell lines that contain ˜5-25 copies of episomal EBV. Chromatin immunoprecipitation was performed as described in Galande, S. & Kohwi-Shigematsu, 1999 J. Biol. Chem. 274, 20521-20528.
(§2) Briefly, asynchronous RAJI cells were cross-linked with formaldehyde, sonicated to generate chromatin DNA fragments of 400 bp average size, and then immunoprecipitation with various antibodies to FLAG-M2 (Sigma), EBNA1, Tankyrase, or TRF2. DNA fragments isolated from immunoprecipitation protein-DNA complexes (three-fold dilutions for each set of antibodies) were then amplified for 24 cycles by PCR with primer pairs specific for the DS region of EBV oriP (corresponding to EBV nucleotides 8586-9206, nucleotides 1-621 SEQ ID NO: 1), or for control EBV sequences surrounding the BRLF1 promoters (nucleotides 106,094-106,420, nucleotides 1-317 SEQ ID NO: 2), over 90 kb away from oriP and unlikely to share OriP binding proteins.
(§3) EBNA1, hRap1,and TRF1 association with OriP were determined by ChIP assay in cells that were treated with hydroxyurea or niacinamide. […]

hRap1 = experiment: ChIP assay of hRap1 association with OriP in D98/HR1 cells; format: cell-based, human; conditions: treated D98/HR1 cells
histone H3 = experiment: OriP-associated histone modification by ChIP assay in Akata cells; format: cell-based
Method: Akata cells were cultured without treatment, with H2O2, hydroxyurea (HU) or niacinamide as indicated above each lane. OriP-associated histone modification was measured by ChIP assay with antibodies specific for Flag, Acetylated H3, acetylated H4, or S10 phosphorylated H3.

TRF1 = experiment: ChIP assay of TRF1 association with OriP in D98/HR1 cells; format: cell-based; conditions: treated D98/HR1 cells
Method: as §1, §2, §3

MCM3 = MCM3 binding to DS in Akata cells; format: cell-based; conditions: preliminary results
Method: (§4) EBNA1 and MCM3 binding to DS were assayed in Akata cells cultured with no treatment, with hydroxyurea, or with niacinamide. […] Future quantification of these preliminary results will be necessary to determine the significance of MCM3 and other MCM complex components interaction with OriP.

EBNA1 [2] = experiment: EBNA1 binding to DS in Akata cells; format: cell-based, Epstein-Barr virus; conditions: preliminary results
Method: as §4

OriP = OriP plasmid maintenance in cells; format: cell-based, Epstein-Barr virus; conditions: for plasmid maintenance of OriP: FIG. 4 and FIG. 5C; for OriP maintenance, dependence on nonamer binding sites: D98/HR1 cells transfected with OriP wt or OriPΔa,b,c, 3 weeks after sorting, Southern analysis of Hirt lysates
Description: A green fluorescent protein (GFP) reporter gene is inserted into the polylinker site of plasmid pREP10 (Invitrogen), which contains the EBV oriP and EBNA-1 under the control of its weak, naturally-occurring viral promoter. The GFP reporter gene allows for rapid flow cytometric (FACS) analysis to determine the percent of cells carrying the DNA vector. FACS is also used to cell sort, i.e., to obtain a homogeneous population of cells all expressing GFP and therefore carrying the vector.
The recombinant episomal plasmid GFP-REP10 is transfected into recipient mammalian or avian host cells and cells are sorted after 48 hours to obtain a homogeneous population (100%) expressing the GFP label. Test compounds, individually or in combination, or controls are applied to samples of the culture medium to test for the effect on GFP positive cells. Cells treated with test compounds, or with positive and/or negative controls, are assayed for the rate of loss of GFP over several days to weeks. These rates of loss are compared for each test compound with the relevant controls to determine novel test compounds that enhance or decrease episomal maintenance in the cell.
Confirmation of episomal DNA is determined at the experimental endpoint of between 3 to 5 weeks, using the HIRT extraction and Southern blotting procedure, described in e.g., Yates et al, 2000, J. Virol. 74, 4512-4522.
In one study, D98/HR1 cells were transfected with OriP wt or OriPΔa,b,c, GFP-selected by FACS, and cultured in the presence of niacinamide (PARP inhibitor), hydroxyurea (PARP stimulator), or 3-AB (PARP inhibitor). OriP maintenance was assayed 3 weeks after sorting by Southern analysis of Hirt lysates.

EBV genome = experiment: Stability of the EBV genome in cells; format: cell-based, Epstein-Barr virus; conditions: FIG. 5A and FIG. 5B
episomal plasmids = experiment: Transient replication of episomal plasmids; format: cell-based
EBNA1 [3] = experiment: DS DNA affinity chromatography in the presence or absence of NAD; format: binding, Epstein-Barr virus; conditions: 1 mM NAD
Method: To identify cellular proteins that mediate EBNA1 functions at OriP, a stable HeLa cell derivative (SL1) was established expressing epitope tagged EBNA1 (HA-EBNA1) and episomal OriP. SL1 cells were generated by retroviral transformation of HeLa S3 cells with HA-EBNA1 lacking Gly-Ala repeats (Δ102-325). HeLa and SL1 cell nuclear extracts were prepared by the method of Dignam, J. D. et al, 1983 Nucl. Acids Res. 11, 1475-1489. Nuclear pellets were solubilized by sonication in RIPA buffer (1% Triton×100, 0.1% sodium deoxycholate, 140 mM NaCl, 50 mM Hepes (pH 7.5), 1 mM EDTA, 1 mM DTT, and protease inhibitors-1 mM PMSF, 1 mM benzamidine, 10 μg/ml aprotinin, 20 μg/ml leupeptine, 1 μg/ml pepstatin, 25 μg/ml TLCK and 50 μg/ml TPCK). Sonicated nuclear pellets were clarified by centrifugation at 39,000×g for 30 minutes. This solubilized nuclear pellets were combined with nuclear extract (1:1) made 6 mM MgCl2, and preincubated with 400 μg/ml sonicated herring sperm DNA for 30 minutes. Biotinylated PCR fragments were coupled to streptavidin conjugated magnetic bead (Dynal) and then incubated nuclear extracts for 45 minutes at 25° C. The bound material was washed 4 times in D150 buffer (20 mM HEPES, pH7.9, 20% glycerol, 0.2 mM EDTA, 150 mM KCl, 1 mM DTT, 1 mM PMSF) and then eluted with D1000 (same as above except 1000 mM KCl). […]

Row | Structure (SMILES) | OriP-associated S10 phosphorylation of histone H3 (histone H3) | TRF1 association with OriP (TRF1) | MCM3 binding to DS (MCM3) | plasmid maintenance of OriP (OriP) | stability of the EBV genome in cells (EBV genome) | transient replication of episomal plasmids (episomal plasmids) | long term maintenance of episomal plasmids (OriP) | OriP maintenance, dependence on nonamer binding sites (OriP) | further results
1 | NC(=O)NO [hydroxyurea] | inhibited S10 phosphorylation of histone H3 | reduced TRF1 association | decrease in EBNA1 and MCM3 association | decreased the maintenance of the OriP plasmid | decreased the stability of the EBV genome |  |  |  | EBNA1 association with OriP (EBNA1 [1]): not EBNA1; hRap1 association with OriP (hRap1): not EBNA1 or hRap1; EBNA1 binding to DS (EBNA1 [2]): decrease in EBNA1 and MCM3 association
2 | NC(=O)c1cccnc1 [niacinamide] |  |  | increased the MCM3 binding relative to EBNA1 | increased OriP maintenance | enhanced stability of the EBV genome | weakly inhibit transient replication | stabilize long term maintenance | enhanced plasmid maintenance was dependent upon the nonamer binding sites in OriP | 
3 | NC(=O)c1cccc(N)c1 [3-AB, 3-aminobenzamide] |  |  |  |  | enhanced the stability of the EBV genome | weakly inhibit transient replication | stabilize long term maintenance | enhanced plasmid maintenance was dependent upon the nonamer binding sites in OriP | 
4 | OO [H2O2, hydrogen peroxide] | inhibited H3 acetylation and S10 phosphorylation | TRF1 binding was reduced |  |  |  |  |  |  | OriP-associated histone H3 acetylation (histone H3): inhibited H3 acetylation
5 | NC(=O)c1ccc[n+]([C@@H]2O[C@H](COP(=O)([O-])OP(=O)(O)OC[C@H]3O[C@@H](n4cnc5c(N)ncnc54)[C@H](O)[C@@H]3O)[C@@H](O)[C@H]2O)c1 [NAD] |  |  |  |  |  |  |  |  | association of EBNA1 with DS (EBNA1 [3]): strong inhibit the association of EBNA1
